This is an account of results in US20220062330A1, “USE OF THIOSULFATE TO POTENTIATE THE ANTI-PATHOGENIC EFFECT OF LACTOBACILLI” (NEXBIOME THERAPEUTICS, priority 2012, published 2022).

The subject of this test is Candida albicans. The settings on record: sodium thiosulfate alone in MRS medium, 1 g/l and 3 g/l, regardless of the concentration studied.

As to `O=S(O)(O)=S` [sodium thiosulfate], the “antifungal potential on Candida albicans growth” value was “No antifungal potential”.
